From patent US20200315176A1, “FUNGICIDAL COMPOSITIONS” (SYNGENTA PARTICIPATIONS AG, priority 2017, published 2020)

Assays:
[1] = system: Glomerella lagenarium (Colletotrichum lagenarium); assay: Example A4: fungicidal activity against Glomerella lagenarium (Colletotrichum lagenarium) liquid culture / cucumber / preventative (anthracnose); assay type: cell-based; settings: Colletotrichum orbiculare, 20 ppm in the applied formulation, growth measured photometrically 3 to 4 days after application, read-out: disease control
Method: Mycelia fragments or conidia suspensions of a fungus prepared either freshly from liquid cultures of the fungus or from cryogenic storage, are directly mixed into nutrient broth. DMSO solutions of the test compound (max. 10 mg/mL) are diluted with 0.025% Tween20 by a factor of 50 and 10 μL of this solution is pipetted into a microtiter plate (96-well format). The nutrient broth containing the fungal spores/mycelia fragments is then added to give an end concentration of the tested compound. The test plates are incubated in the dark at 24° C. and 96% relative humidity. The inhibition of fungal growth is determined photometrically after 2 to 7 days, depending on the pathosystem, and percent antifungal activity relative to the untreated check is calculated. Conidia of the fungus from cryogenic storage are directly mixed into nutrient broth (PDB—potato dextrose broth). After placing a (DMSO) solution of test compound into a microtiter plate (96-well format), the nutrient broth containing the fungal spores is added.

[2] = system: Puccinia recondita f. sp. tritici; assay: Example A2: fungicidal activity against Puccinia recondita f. sp. tritici / wheat / leaf disc curative (brown rust); assay type: in vivo; settings: foliar, 24 h, 200 ppm in the applied formulation, curative (applied 1 day after inoculation), wheat leaf segments, read-out: disease control
Method: (§1) Leaf disks or leaf segments of various plant species are cut from plants grown in a greenhouse. The cut leaf disks or segments are placed in multiwell plates (24-well format) onto water agar. The leaf disks are sprayed with a test solution before (preventative) or after (curative) inoculation. Compounds to be tested are prepared as DMSO solutions (max. 10 mg/mL) which are diluted to the appropriate concentration with 0.025% Tween20 just before spraying. The inoculated leaf disks or segments are incubated under defined conditions (temperature, relative humidity, light, etc.) according to the respective test system. A single evaluation of disease level is carried out 3 to 14 days after inoculation, depending on the pathosystem. Percent disease control relative to the untreated check leaf disks or segments is then calculated.
Wheat leaf segments cv. Kanzler are placed on agar in multiwell plates (24-well format). The leaf segments are then inoculated with a spore suspension of the fungus. Plates were stored in darkness at 19° C. and 75% relative humidity. The formulated test compound diluted in water was applied 1 day after inoculation. The leaf segments were incubated at 19° C. and 75% relative humidity under a light regime of 12 hours light/12 hours darkness in a climate cabinet and the activity of a compound was assessed as percent disease control compared to untreated when an appropriate level of disease damage appears in untreated check leaf segments (6 to 8 days after application).

[3] = system: Puccinia recondita f. sp. tritici; assay: Example A1: fungicidal activity against Puccinia recondita f. sp. tritici / wheat / leaf disc preventative (brown rust); assay type: in vivo; settings: foliar, 200 ppm in the applied formulation, wheat leaf segments, compared to untreated, read-out: disease control
Method: as §1
Wheat leaf segments cv. Kanzler were placed on agar in multiwell plates (24-well format) and sprayed with the formulated test compound diluted in water. The leaf disks were inoculated with a spore suspension of the fungus 1 day after application. The inoculated leaf segments were incubated at 19° C. and 75% relative humidity (rh) under a light regime of 12 hours light/12 hours darkness in a climate cabinet and the activity of a compound was assessed as percent disease control compared to untreated when an appropriate level of disease damage appears in untreated check leaf segments (7 to 9 days after application).

Phakopsora pachrhizi = assay: Example A3: fungicidal activity against Phakopsora pachrhizi / soybean / leaf disc preventative (Asian soybean rust); assay type: in vivo; settings: Phakopsora pachyrhizi, foliar, 200 ppm in the applied formulation, soybean leaf disks, read-out: disease control
Method: as §1
Soybean leaf disks are placed on water agar in multiwell plates (24-well format) and sprayed with the formulated test compound diluted in water. One day after application leaf discs are inoculated by spraying a spore suspension on the lower leaf surface. After an incubation period in a climate cabinet of 24-36 hours in darkness at 20° C. and 75% rh leaf disc are kept at 20° C. with 12 h light/day and 75% rh. The activity of a compound is assessed as percent disease control compared to untreated when an appropriate level of disease damage appears in untreated check leaf disks (12 to 14 days after application).

Row | melting point [°C] | Compound | inhibition of growth at 20 ppm [1] [%] | pest or weed control at 200 ppm [2] [%] | pest or weed control at 200 ppm [3] [%] | pest or weed control at 200 ppm (Phakopsora pachrhizi) [%]
1 | 143 to 144 | FC(F)(F)c1nc(-c2ccc(Cn3nnc4cccnc43)cc2)no1 [X.11, 3-[4-(triazolo[4,5-b]pyridin-3-ylmethyl)phenyl]-5-(trifluoromethyl)-1,2,4-oxadiazole] | ≥ 80 | ≥ 80 | ≥ 80 | ≥ 80
2 | 121 to 122 | FC(F)(F)c1nc(-c2ccc(Cn3nc4cccnc4n3)cc2)no1 [X.10, 3-[4-(triazolo[4,5-b]pyridin-2-ylmethyl)phenyl]-5-(trifluoromethyl)-1,2,4-oxadiazole] | ≥ 80 | ≥ 80 | ≥ 80 | ≥ 80
